The values that follow come from ChEMBL document CHEMBL1201862, “PubChem BioAssay data set” (2004).

In data set [1] the target is T1, RNA-binding protein pos-1 (Caenorhabditis elegans, UniProt G5EF15).
T1 sequence (G5EF15 whole entry): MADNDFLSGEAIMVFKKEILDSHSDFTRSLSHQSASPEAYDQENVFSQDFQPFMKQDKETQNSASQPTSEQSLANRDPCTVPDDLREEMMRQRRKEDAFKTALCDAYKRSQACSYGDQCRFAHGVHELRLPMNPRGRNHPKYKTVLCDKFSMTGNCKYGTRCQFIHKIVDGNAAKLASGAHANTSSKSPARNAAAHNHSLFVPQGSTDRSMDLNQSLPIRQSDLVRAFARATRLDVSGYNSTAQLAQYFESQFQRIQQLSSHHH
Put plainly: inhibitors of POS-1/mex-3 RNA binding, dose response, biochemical, fluorescence polarization (AID 1964).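 Further: purified POS-1 fused to maltose binding protein made in E. coli; potency of compounds blocking POS-1 binding to fluorescent RNA.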 Background: Polarisation of emitted light reports the rotation of a fluorescent probe.

Data set [2] addresses T2, Zinc finger protein mex-5 (Caenorhabditis elegans, UniProt Q9XUB2).
T2 sequence (Q9XUB2 whole entry): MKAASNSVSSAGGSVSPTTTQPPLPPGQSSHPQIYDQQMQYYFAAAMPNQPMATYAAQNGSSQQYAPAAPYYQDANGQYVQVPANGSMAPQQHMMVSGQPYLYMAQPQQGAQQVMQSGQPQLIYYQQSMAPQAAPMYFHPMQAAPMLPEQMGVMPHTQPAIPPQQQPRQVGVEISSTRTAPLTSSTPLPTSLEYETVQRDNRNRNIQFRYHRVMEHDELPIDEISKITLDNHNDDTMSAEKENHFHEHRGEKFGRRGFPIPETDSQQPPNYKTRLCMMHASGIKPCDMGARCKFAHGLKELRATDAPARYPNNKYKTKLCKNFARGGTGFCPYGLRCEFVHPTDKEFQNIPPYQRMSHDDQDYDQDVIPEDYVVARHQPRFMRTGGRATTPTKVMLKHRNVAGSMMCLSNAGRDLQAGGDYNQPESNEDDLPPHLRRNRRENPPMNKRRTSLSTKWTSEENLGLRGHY
Briefly: MEX-5/TCR-2 RNA interaction inhibitors, dose response, biochemical, C. elegans, fluorescence polarization (AID 1960).

In the next data set the target is Melanocortin receptor 4 (Homo sapiens, UniProt P32245). Briefly: MC4R antagonist potency on cAMP, dose response, cell-based, TR-FRET, biased antagonists (AID 602298).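 Further: antagonist potency against agonist-stimulated cAMP production.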 Format: functional. Background: TR-FRET usually uses a lanthanide donor and a delayed reading to cut background.
Melanocortin receptor 4, sequence (P32245 whole entry): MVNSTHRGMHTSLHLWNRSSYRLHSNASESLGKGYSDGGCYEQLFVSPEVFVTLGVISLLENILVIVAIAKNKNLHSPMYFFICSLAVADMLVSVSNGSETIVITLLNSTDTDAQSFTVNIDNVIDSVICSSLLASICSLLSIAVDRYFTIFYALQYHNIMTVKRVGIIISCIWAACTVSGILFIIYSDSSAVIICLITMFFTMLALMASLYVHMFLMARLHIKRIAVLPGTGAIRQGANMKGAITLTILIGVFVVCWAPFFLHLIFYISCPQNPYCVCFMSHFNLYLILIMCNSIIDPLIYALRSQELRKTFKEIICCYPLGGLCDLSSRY
A short description of data set [3]: nonselective inhibitors of cellular cAMP signaling, dose response, counter-screen for MC4R biased antagonist project, cell-based, TR-FRET cAMP detection (AID 602305).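 Further: U2OS cells stimulated with forskolin near its EC80 as the cAMP inducer; potency is for inhibition of forskolin-stimulated cAMP signaling.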 It counts as functional. (In general: A counterscreen serves to expose hits that act by an unwanted route or on another target.)
The target in data set [4] is Eukaryotic translation initiation factor 4E (Mus musculus, UniProt P63073). Put plainly: eIF4E–eIF4G protein interaction inhibitors, dose response, biochemical, TR-FRET (AID 855).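 Further: potency for disrupting eIF4E binding to eIF4GI seen as loss of FRET.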 It counts as functional.
Eukaryotic translation initiation factor 4E, sequence (P63073 whole entry): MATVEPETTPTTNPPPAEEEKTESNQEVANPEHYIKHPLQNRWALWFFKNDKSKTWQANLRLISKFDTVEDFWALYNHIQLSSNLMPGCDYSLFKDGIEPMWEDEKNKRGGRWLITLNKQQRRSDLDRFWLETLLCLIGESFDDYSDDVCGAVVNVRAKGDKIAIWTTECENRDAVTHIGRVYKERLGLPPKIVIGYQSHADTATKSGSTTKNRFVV
The next data set addresses T3, Coagulation factor XII (Homo sapiens, UniProt P00748).
T3 sequence (P00748 whole entry): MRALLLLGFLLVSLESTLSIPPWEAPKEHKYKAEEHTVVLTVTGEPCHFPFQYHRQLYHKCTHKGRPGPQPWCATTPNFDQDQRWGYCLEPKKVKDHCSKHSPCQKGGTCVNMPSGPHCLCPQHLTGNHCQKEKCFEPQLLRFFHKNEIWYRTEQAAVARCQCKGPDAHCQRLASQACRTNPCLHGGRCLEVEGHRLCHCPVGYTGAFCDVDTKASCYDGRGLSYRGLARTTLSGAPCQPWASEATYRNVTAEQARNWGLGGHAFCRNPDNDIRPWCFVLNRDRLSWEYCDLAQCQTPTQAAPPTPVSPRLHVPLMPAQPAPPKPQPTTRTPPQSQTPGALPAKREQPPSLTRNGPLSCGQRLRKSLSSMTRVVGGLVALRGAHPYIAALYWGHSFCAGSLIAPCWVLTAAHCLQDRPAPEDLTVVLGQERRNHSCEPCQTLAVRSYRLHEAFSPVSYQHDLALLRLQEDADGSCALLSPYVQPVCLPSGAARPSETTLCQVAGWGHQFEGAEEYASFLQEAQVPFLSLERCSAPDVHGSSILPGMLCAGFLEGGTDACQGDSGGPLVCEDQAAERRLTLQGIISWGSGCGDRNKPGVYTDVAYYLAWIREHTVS
It counts as functional.

In data set [5] the target is Glyceraldehyde-3-phosphate dehydrogenase (Homo sapiens, UniProt P04406).
Glyceraldehyde-3-phosphate dehydrogenase, sequence (P04406 whole entry): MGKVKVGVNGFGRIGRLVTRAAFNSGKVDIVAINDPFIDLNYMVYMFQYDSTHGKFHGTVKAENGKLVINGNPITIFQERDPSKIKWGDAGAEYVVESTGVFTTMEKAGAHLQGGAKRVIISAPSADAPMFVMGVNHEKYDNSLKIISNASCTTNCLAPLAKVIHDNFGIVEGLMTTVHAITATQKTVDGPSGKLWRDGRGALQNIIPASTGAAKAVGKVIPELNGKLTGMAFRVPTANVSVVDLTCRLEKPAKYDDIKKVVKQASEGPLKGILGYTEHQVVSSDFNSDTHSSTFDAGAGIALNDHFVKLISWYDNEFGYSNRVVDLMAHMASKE
Data set [6] addresses T4, Alkaline phosphatase, tissue-nonspecific isozyme (Homo sapiens, UniProt P05186).
T4 sequence (P05186 whole entry): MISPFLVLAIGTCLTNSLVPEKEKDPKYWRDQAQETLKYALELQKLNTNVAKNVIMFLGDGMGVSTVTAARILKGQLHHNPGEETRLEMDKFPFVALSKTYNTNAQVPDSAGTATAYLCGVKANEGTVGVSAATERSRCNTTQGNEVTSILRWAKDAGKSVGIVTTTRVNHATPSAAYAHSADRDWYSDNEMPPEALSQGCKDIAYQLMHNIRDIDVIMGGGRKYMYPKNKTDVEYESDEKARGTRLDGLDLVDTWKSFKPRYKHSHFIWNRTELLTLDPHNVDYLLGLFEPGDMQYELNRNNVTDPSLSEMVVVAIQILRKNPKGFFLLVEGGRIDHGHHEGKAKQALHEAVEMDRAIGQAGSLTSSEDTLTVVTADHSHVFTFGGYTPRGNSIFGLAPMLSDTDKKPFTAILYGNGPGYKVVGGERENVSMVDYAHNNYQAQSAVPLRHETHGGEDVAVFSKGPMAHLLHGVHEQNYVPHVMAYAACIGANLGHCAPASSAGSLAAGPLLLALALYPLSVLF
Put plainly: human TNAP enzyme inhibitors, SAR follow-up, biochemical, luminescent, dose response (AID 1056).

Data set [7] has as its target Nuclear receptor subfamily 5 group A member 2 (Homo sapiens, UniProt O00482). Format: functional, cell-based.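 Further: HEK293T cells transfected with LRH-1 and a StAR promoter luciferase reporter; potency for inhibitors that lower LRH-1 driven reporter light.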
A further data set deals with Steroidogenic factor 1 (Homo sapiens, UniProt Q13285). Put plainly: Counterscreen for inverse agonists of the liver receptor homolog-1 (LRH-1; NR5A2): Luminescence-based cell-based high throughput dose response assay to identify inverse agonists of the Steroidogenic Factor 1 Nuclear Receptor (SF1; NR5A1). Format: functional.
Steroidogenic factor 1, sequence (Q13285 whole entry): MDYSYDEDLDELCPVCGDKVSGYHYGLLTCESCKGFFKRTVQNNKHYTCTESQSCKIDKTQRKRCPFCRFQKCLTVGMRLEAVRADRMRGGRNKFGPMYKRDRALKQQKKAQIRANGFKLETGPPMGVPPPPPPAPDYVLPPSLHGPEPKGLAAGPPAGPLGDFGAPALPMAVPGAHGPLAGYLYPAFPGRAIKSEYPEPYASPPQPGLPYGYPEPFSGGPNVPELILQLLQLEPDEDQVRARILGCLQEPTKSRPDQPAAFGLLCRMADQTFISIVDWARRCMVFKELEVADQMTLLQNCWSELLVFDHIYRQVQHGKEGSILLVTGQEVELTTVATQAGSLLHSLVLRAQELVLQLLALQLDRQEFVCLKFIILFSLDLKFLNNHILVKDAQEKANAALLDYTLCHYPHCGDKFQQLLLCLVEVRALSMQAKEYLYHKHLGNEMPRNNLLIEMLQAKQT
The nature of data set [8]: StAR promoter reporter inhibition counter-screen, dose response, counter-screen for LRH-1 inverse agonist project, cell-based, luminescence, luciferase reporter (AID 651969). It counts as functional.
The target in the next data set is Cytochrome P450 3A4 (Homo sapiens, UniProt P08684).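 Further: CYP3A4 tested as one member of a cytochrome P450 panel screen.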
Cytochrome P450 3A4, sequence (P08684 whole entry): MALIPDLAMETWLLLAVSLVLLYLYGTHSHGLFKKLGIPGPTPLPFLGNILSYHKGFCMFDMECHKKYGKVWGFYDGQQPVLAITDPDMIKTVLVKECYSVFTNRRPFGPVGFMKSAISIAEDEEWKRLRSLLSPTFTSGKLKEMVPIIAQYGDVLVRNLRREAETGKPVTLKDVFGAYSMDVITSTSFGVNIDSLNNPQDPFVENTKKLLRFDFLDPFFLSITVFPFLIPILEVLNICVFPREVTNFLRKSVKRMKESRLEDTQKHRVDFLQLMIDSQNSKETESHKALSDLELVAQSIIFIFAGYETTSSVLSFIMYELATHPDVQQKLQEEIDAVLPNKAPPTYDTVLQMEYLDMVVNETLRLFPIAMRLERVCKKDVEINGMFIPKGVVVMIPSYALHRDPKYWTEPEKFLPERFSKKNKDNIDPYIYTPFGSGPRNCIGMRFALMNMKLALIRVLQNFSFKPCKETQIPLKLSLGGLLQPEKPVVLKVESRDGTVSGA
In data set [9] the target is T5, Corticotropin-releasing factor receptor 2/Corticotropin-releasing factor-binding protein (Homo sapiens, UniProt P24387+Q13324).
T5 sequence (Q13324 whole entry): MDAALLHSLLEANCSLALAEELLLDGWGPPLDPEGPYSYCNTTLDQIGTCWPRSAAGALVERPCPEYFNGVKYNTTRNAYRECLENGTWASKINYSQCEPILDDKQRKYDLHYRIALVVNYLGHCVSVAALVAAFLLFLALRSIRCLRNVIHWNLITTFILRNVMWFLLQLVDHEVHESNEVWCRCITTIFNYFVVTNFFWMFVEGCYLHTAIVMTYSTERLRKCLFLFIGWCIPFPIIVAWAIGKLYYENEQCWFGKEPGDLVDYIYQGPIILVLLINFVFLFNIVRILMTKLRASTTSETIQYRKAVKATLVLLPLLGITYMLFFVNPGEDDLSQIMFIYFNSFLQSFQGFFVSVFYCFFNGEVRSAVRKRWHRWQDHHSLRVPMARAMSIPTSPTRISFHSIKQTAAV
T5 sequence (P24387 whole entry): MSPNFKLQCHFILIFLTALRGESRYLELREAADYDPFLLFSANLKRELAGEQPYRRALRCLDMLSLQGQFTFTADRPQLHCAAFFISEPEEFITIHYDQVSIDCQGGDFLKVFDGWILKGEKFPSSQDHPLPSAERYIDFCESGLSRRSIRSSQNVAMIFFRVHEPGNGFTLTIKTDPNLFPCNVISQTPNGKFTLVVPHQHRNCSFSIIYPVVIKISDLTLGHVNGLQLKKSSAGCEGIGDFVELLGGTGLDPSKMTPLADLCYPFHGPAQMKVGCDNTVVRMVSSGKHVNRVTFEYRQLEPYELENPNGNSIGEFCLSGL
Put plainly: Dose Response confirmation of uHTS hits for small molecule antagonists of the CRF-binding protein and CRF-R2 receptor complex. It counts as functional. Particulars: read-out: IC50_Mean.

The target of data set [10] is T5, Corticotropin-releasing factor receptor 2/Corticotropin-releasing factor-binding protein. Briefly: activators of CRF receptor 2 with binding protein – uHTS hits, confirmation (AID 602473). It counts as functional. Particulars: read-out: EC50_Mean.
Data set [11] can be described thus: CRF-BP/CRF-R2 complex antagonists, dose response, cell-based, uHTS hits, 384-well (AID 651639). Format: functional, Homo sapiens. Particulars: read-out: IC50_Mean.
Data set [12] is described as follows: A Cell Based Secondary Assay to Explore Cytotoxicity in THP-1 Cells of Compounds that Modulate Mycobacterium tuberculosis in Media Containing Glycerol versus Media without Glycerol (2). It counts as functional.
Data set [13] is described as follows: Vero cell cytotoxicity, cytotoxicity control for M. tuberculosis inhibitor project, purified and synthesized samples, set 3 (AID 504684). Format: functional. The conditions noted are these: […].
For data set [14], the target named is Heat shock protein HSP 90-alpha (Homo sapiens, UniProt P07900). Format: functional, organism-based.
Data set [15] can be described thus: Shn3 3'UTR reporter inhibitors, dose response, cell-based, Clone20 osteoblasts, firefly luciferase, cherry-picked (AID 624132).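 Further: firefly luciferase luminescence from reporter carrying the Shn3 3'UTR in osteoblasts.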 Format: functional.
A short description of data set [16]: HepG2 cell cytotoxicity, dose response, cytotoxicity control for Shn3 inhibitor project, CellTiter-Glo, cherry-picked (AID 624134). Format: functional, cell-based.
A short description of data set [17]: control 3'UTR Renilla luciferase suppression, dose response, counter-screen for Shn3 inhibitor project, cell-based, Clone20-Shn3RL, cherry-picked (AID 624133). Format: functional.
In data set [18] the target is Photoreceptor-specific nuclear receptor (Homo sapiens, UniProt Q9Y5X4). Format: functional, cell-based.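 Further: CHO-S cells with Gal4-NCOR and VP16-NR2E3 two-hybrid luciferase reporter.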
Photoreceptor-specific nuclear receptor, sequence (Q9Y5X4 whole entry, the tested form may be a part): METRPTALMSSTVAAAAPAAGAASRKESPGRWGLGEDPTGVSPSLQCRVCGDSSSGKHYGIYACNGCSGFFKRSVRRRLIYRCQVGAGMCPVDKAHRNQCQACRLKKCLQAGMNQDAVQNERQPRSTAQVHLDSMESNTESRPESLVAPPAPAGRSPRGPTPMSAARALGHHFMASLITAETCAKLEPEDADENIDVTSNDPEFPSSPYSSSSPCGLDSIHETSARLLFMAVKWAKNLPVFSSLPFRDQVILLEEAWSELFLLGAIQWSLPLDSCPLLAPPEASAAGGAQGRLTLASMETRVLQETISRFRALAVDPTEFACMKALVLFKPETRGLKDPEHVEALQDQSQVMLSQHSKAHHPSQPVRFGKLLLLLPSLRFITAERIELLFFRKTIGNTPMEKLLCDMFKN

Activity calls are given as the source filed them.

Nuclear receptor subfamily 5 group A member 2, sequence (O00482 whole entry): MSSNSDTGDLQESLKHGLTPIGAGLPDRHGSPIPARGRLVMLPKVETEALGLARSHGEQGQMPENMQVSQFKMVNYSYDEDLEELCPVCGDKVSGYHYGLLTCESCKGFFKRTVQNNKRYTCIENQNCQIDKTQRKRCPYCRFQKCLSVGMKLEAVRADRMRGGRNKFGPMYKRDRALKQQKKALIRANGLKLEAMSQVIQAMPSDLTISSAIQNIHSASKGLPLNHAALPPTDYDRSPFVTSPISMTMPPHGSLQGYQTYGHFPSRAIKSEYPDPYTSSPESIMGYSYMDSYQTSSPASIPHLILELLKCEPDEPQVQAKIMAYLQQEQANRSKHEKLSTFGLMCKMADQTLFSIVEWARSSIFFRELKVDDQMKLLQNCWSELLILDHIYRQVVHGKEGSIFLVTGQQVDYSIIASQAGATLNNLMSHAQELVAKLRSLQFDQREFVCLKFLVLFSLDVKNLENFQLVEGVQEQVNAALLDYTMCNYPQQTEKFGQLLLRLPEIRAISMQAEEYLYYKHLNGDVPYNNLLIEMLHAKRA

`CCOC(=O)CSc1nc2ccc(Nc3nc(N4CCOCC4)nc(N4CCOCC4)n3)cc2s1`: the EC50 in data set [1] and in [2] was > 300 µM (not active) in each case. Further, the IC50 (on Melanocortin receptor 4; in [3]) was > 64.6 µM (inactive) each time.

In the case of `COc1ccc(C2=CSC3=NCCN23)cc1F`, the results for the IC50 (in data set [4]; on Coagulation factor XII) were > 64 µM (inactive) and > 50 µM (inactive), respectively.

As to `COc1ccc(S(=O)(=O)Nc2ccncc2)cc1OC`, the IC50 in data set [5] was > 100 µM (not active); in [6] it was > 100 µM (inactive).

In the case of `Cc1sc(NC(=O)C(C)C)c(C(=O)Nc2ccccc2)c1C`, the IC50 was 11.6 µM (inactive) in data set [7], 3.85 µM (active) at Steroidogenic factor 1 and 35.9 µM (inactive) in data set [8]. Further, at Cytochrome P450 3A4, the AC50 – broadly, the concentration giving half of the maximal activity seen – is “inconclusive”.

As to `COc1ccccc1Nc1nc(N)nc(CSC(=S)N2CC(C)CC(C)C2)n1` (stereo not given), the IC50 is 32 µM (active) in data set [9] and > 20 µM (inactive) in data set [11]. For the same compound, in data set [10], the EC50 is > 53 µM (inactive).

Take `CCCOc1ccc(C(=O)NC(C)C(=O)O)cc1` (stereo not given): the IC50 at Coagulation factor XII was > 50 µM (inactive).

For `Cc1ccn2c(=O)nc(SCC(=O)Nc3ccc4c(c3)OCCO4)nc2c1`, the results for the IC50 (in [7]; on Steroidogenic factor 1; in data set [8]) were 35.9 µM (inactive), 3.98 µM (active) and 35.9 µM (inactive), respectively.

On to `Cc1ccc(S(=O)(=O)Nc2nc3ccccc3nc2Cl)cc1`, for which the IC50 in data set [5] was > 100 µM (not active); in data set [6] it was > 100 µM (inactive).

Regarding `O=C1c2c(Cl)c(Cl)c(Cl)c(Cl)c2C(=O)N1c1nnc(CCc2ccccc2)[nH]1`, the IC50 was > 100 µM (not active) in data set [5] and > 100 µM (inactive) in data set [6].

In the case of `CCC(C)NC(=O)C1CN(S(=O)(=O)c2ccccc2)CCN1S(=O)(=O)c1ccccc1` (stereo not given), the IC50 on Coagulation factor XII was > 50 µM (inactive).

Turning to `CCOC(=O)/C(C#N)=C\c1ccc2c(c1)OCO2`, the IC50 in data set [9] is 2.02 µM (active); in [11] it was > 20 µM (inactive). In addition, in [10], the EC50 was > 53 µM (inactive).

Regarding `Cc1cc(Br)ccc1NC(=O)CSc1nnc(CN2CCOCC2)n1C`, the IC50 in data set [7] was 40.2 µM (inactive); at Steroidogenic factor 1, 24.7 µM (inactive); in data set [8] it was 35.9 µM (inactive).

Turning to `NS(=O)(=O)c1ccc(NC(=O)COC(=O)c2ncc(Cl)c(Cl)c2Cl)cc1`, the IC50 (on Melanocortin receptor 4; in [3]) was > 64.6 µM (inactive) in each case.

Take `CCn1c2ccccc2c2cc(NC(=O)CSc3nc(C)cc(=O)[nH]3)ccc21`: the 50% cytotoxic concentration (CC50) (as a rule, the concentration at which the toxic effect on the cells reaches its halfway point) in [12] is 41.1 µM (active); in [13] it was 56 µM (active).

As for `O=C(OC12CC3CC(CC(C3)C1)C2)c1ccc(NCc2cc(O)ccc2O)cc1`, the AC50 is 5.15 µM (active) in data set [14], 2.33 µM (active) in [15], 53 µM (active) in data set [16] and 3.99 µM (active) in data set [17]. Also, the IC50 in [18] was 4.09 µM (active).

For `CN(Cc1ccccc1)c1nc2c(c(=O)[nH]c(=O)n2C)n1CCCSc1ncccn1`, the IC50 at Coagulation factor XII is > 50 µM (inactive).
